Reference: EP0561850B1, “7-SUBSTITUTED-6-FLUORO-1,4-DIHYDRO-4-OXO-QUINOLINE-3-CARBOXYLIC ACID COMPOUNDS USEFUL AS ANTIBACTERIAL AGENTS” (priority 1990, dated 1992)
Converted amounts (≈) assume the structure as drawn. Like-named read-outs stand apart in the source and are kept apart here.

Key:
Test in all cases: Microbroth dilution (MHB) method, NCCLS M7-A2
Eschericia coli S-63 = format: cell-based; conditions: Ec S-63, inoculum 5 x 10^5 cfu/ml, 35 °C/18 hr
Procedure: (§1) The test organisms were obtained from ATCC and clinical laboratories. The 96-well microtitre plates containing […] of serially diluted test compounds in Mueller Hinton Broth (MHB) (conc. range 64-0.03 µg/ml) were inoculated with […] of bacterial suspension in MHB so that an inoculum size of 5 x 10^5 cfu/ml was achieved.
(§2) EC. (S- 63): Eschericia coli Ecl. (S- 130): Enterobacter cloacae Pa. (S- 67): Pseudomonas aeruginosa Kp. (S- 80): Klebsiella pneumoniae Pr.
(§3) Microbroth Dilution (MHB) method; Inoculum, 5 x 10^5 cfu/ml; Incubation 35 °C/18 hr

[1] = test system: Klebsiella pneumoniae S-80; format: cell-based; conditions: Kp S-80, MHB, inoculum 5 x 10^5 cfu/ml, 35 °C/18 hr
Procedure: as §1, §2, §3

[2] = test system: Providencia rettgeri S-121; format: cell-based; conditions: 35 °C/18 hr
Procedure: as §1, §2, §3

[3] = test system: Pseudomonas aeruginosa S-67; format: cell-based; conditions: Pa S-67, MHB, inoculum 5 x 10^5 cfu/ml, 35 °C/18 hr
Procedure: as §1, §2, §3

[4] = test system: Staphylococcus aureus S-127; format: cell-based; conditions: 35 °C/18 hr
Procedure: as §1, §2, §3

[5] = test system: Enterobacter cloacae S-130; format: cell-based; conditions: 35 °C/18 hr
Procedure: as §1, §2, §3

Sa 127M = format: cell-based, Staphylococcus aureus; conditions: inoculum 5 x 10^5 cfu/ml, 35 °C/18 hr
Procedure: as §1, §2, §3

[6] = Klebsiella pneumoniae, S80, read-out: MIC
[7] = Providencia rettgeri, S121, Pr S-121, inoculum 5 x 10^5 cfu/ml, read-out: MIC
[8] = Pseudomonas aeruginosa, S67, read-out: MIC
[9] = Staphylococcus aureus, S127, Sa S-127, inoculum 5 x 10^5 cfu/ml, read-out: MIC
[10] = Enterobacter cloacae, S130, Ecl S-130, inoculum 5 x 10^5 cfu/ml, read-out: MIC
[11] = Staphylococcus aureus, read-out: MIC

Molecule | MIC (Eschericia coli S-63; read-out: MIC) [µg/mL] | MIC [1, 6] [µg/mL] | MIC [2, 7] [µg/mL] | MIC [3, 8] [µg/mL] | MIC [4, 9] [µg/mL] | MIC [5, 10] [µg/mL] | MIC (Sa 127M; [11]) [µg/mL] | MIC ([5]; Ecl S-130, inoculum 5 x 10^5 cfu/ml) | MIC (Eschericia coli S-63) | MIC [1] | MIC ([2]; Pr S-121, inoculum 5 x 10^5 cfu/ml) | MIC [3] [µg/mL] | MIC ([4]; Sa S-127, inoculum 5 x 10^5 cfu/ml) [µg/mL] | MIC (Sa 127M) [µg/mL]
CCn1cc(C(=O)O)c(=O)c2cc(F)c(N3CCNCC3)cc21 [MFLX, Norfloxacin, reference compound] | 0.06 (≈ 0.188 µM) | 0.12 (≈ 0.376 µM) | 1 (≈ 3.13 µM) | 1 (≈ 3.13 µM) | 1 (≈ 3.13 µM) | 0.12 (≈ 0.376 µM) | 16 (≈ 50.1 µM) | – | – | – | – | – | – | –
C[C@H]1COc2c(N3CCC(n4ccnn4)C3)c(F)cc3c(=O)c(C(=O)O)cn1c23 (single isomer, unassigned; (-)) [Example 38] | 0.25 (≈ 0.626 µM) | 1 (≈ 2.5 µM) | 1 (≈ 2.5 µM) | 8 (≈ 20 µM) | 0.12 (≈ 0.3 µM) | 1 (≈ 2.5 µM) | 0.5 (≈ 1.25 µM) | – | – | – | – | – | – | –
Norfloxacin - choline salt [MFLX-, reference compound] | – | – | – | – | – | – | – | .25 µg/mL | .06 µg/mL | .25 µg/mL | .12 µg/mL | 1 | 2 | 16
O=C(O)c1cn(C2CC2)c2c(F)c(N3CCC(n4nncc4C(=O)O)C3)c(F)cc2c1=O (stereo not shown) [Example 43, 1-Cyclopropyl-6,8-difluoro-7-(3-(5-carboxy-1,2,3-triazol-1-yl)-pyrrolidin-1-yl)-1,4-dihydro-4-oxo-quinoline-3-carboxylic acid] | 16 (≈ 35.9 µM) | 32 (≈ 71.8 µM) | 32 (≈ 71.8 µM) | > 32 | 8 (≈ 18 µM) | 32 (≈ 71.8 µM) | 8 (≈ 18 µM) | – | – | – | – | – | – | –
COc1c(N2CCC(n3cncn3)C2)c(F)cc2c(=O)c(C(=O)O)cn(C3CC3)c12 (stereo not shown) [Example 34, 1-Cyclopropyl-6-fluoro-7-[3-(1,2,4-triazol-1-yl)pyrrolidin-1-yl]-8-methoxy-1,4-dihydro-4-oxo-quinoline-3-carboxylic acid] | 0.5 (≈ 1.21 µM) | 0.5 (≈ 1.21 µM) | 0.5 (≈ 1.21 µM) | 8 (≈ 19.4 µM) | 0.5 (≈ 1.21 µM) | 0.5 (≈ 1.21 µM) | – | – | – | – | – | – | – | –
O=C(O)c1cn(C2CC2)c2c(F)c(N3CCC(n4cncn4)C3)c(F)cc2c1=O (stereo not shown) [Example 29, 1-Cyclopropyl-6,8-difluoro-7-[3-(1,2,4-triazol-1-yl)pyrrolidin-1-yl]-1,4-dihydro-4-oxo-quinoline-3-carboxylic acid] | 0.12 (≈ 0.299 µM) | 0.5 (≈ 1.25 µM) | 0.25 (≈ 0.623 µM) | 4 (≈ 9.97 µM) | 0.03 (≈ 0.0747 µM) | 0.25 (≈ 0.623 µM) | 0.06 (≈ 0.149 µM) | – | – | – | – | – | – | –
Cc1nnn(C2CCN(c3c(F)cc4c(=O)c(C(=O)O)cn(C5CC5)c4c3F)C2)c1C (stereo not shown) [Example 26, 1-Cyclopropyl-6,8-difluoro-7[3-(4,5-dimethyl-1,2,3-triazol-1-yl)pyrrolidin-1-yl]-1,4-dihydro-4-oxo-quinoline-3-carboxylic acid] | 0.25 (≈ 0.582 µM) | 1 (≈ 2.33 µM) | 1 (≈ 2.33 µM) | 8 (≈ 18.6 µM) | 0.03 (≈ 0.0699 µM) | 2 (≈ 4.66 µM) | 0.06 (≈ 0.14 µM) | – | – | – | – | – | – | –
Nc1c(F)c(N2CCC(n3cc(-c4ccccc4)nn3)C2)c(F)c2c1c(=O)c(C(=O)O)cn2C1CC1 (stereo not shown) [Example 47, 5-amino-1-cyclopropyl-6,8-difluoro-7-[3-(4-phenyl-1,2,3-triazol-1-yl)-pyrrolidin-1-yl]-1,4-dihydro-4-oxo-quinoline-3-carboxylic acid] | 0.25 (≈ 0.508 µM) | 0.5 (≈ 1.02 µM) | 0.015 (≈ 0.0305 µM) | > 32 | 0.015 (≈ 0.0305 µM) | 16 (≈ 32.5 µM) | 0.015 (≈ 0.0305 µM) | – | – | – | – | – | – | –
Nc1cn(C2CCN(c3c(F)cc4c(=O)c(C(=O)O)cn(C5CC5)c4c3F)C2)nn1 (stereo not shown) [Example 42, 1-Cyclopropyl-6,8-difluoro-7-(3-(4-amino-1,2,3-triazol-1-yl)-pyrrolidin-1-yl)-1,4-dihydro-4-oxo-quinoline-3-carboxylic acid] | 0.5 (≈ 1.2 µM) | 1 (≈ 2.4 µM) | 1 (≈ 2.4 µM) | 4 (≈ 9.61 µM) | 0.25 (≈ 0.6 µM) | 1 (≈ 2.4 µM) | 1 (≈ 2.4 µM) | – | – | – | – | – | – | –
COc1c(N2CCC(n3cc(C)nn3)C2)c(F)cc2c(=O)c(C(=O)O)cn(C3CC3)c12 (stereo not shown) [Example 33] | 0.12 (≈ 0.281 µM) | 1 (≈ 2.34 µM) | 2 (≈ 4.68 µM) | 8 (≈ 18.7 µM) | ≤ 0.015 | 1 (≈ 2.34 µM) | ≤ 0.015 | – | – | – | – | – | – | –
O=C(O)c1cn(C2CC2)c2c(F)c(N3CCC(n4ncnn4)C3)c(F)cc2c1=O (stereo not shown) [Example 51, 1-Cyclopropyl-6,8-difluoro-7-[3-(1,2,3,4-tetrazol-2-yl)pyrrolidin-1-yl]-1,4-dihydro-4-oxo-quinoline-3-carboxylic acid] | 0.06 (≈ 0.149 µM) | 0.12 (≈ 0.298 µM) | 0.12 (≈ 0.298 µM) | 2 (≈ 4.97 µM) | ≤ 0.03 | – | ≤ 0.03 | – | – | – | – | – | – | –
O=C(O)c1cn(C2CC2)c2c(F)c(N3CCC(n4cc(-c5ccccc5)nn4)C3)c(F)cc2c1=O (stereo not shown) [Example 46, 1-cyclopropyl-6,8-difluoro-7-[3-(4-phenyl-1,2,3-triazol-1-yl)-pyrrolidin-1-yl]-1,4-dihydro-4-oxo-quinoline-3-carboxylic acid] | 0.25 (≈ 0.524 µM) | 1 (≈ 2.09 µM) | 0.015 (≈ 0.0314 µM) | 32 (≈ 67 µM) | 0.015 (≈ 0.0314 µM) | 1 (≈ 2.09 µM) | 0.015 (≈ 0.0314 µM) | – | – | – | – | – | – | –
O=C(O)c1cn(C2CCN(c3c(F)cc4c(=O)c(C(=O)O)cn(C5CC5)c4c3F)C2)nn1 (stereo not shown) [Example 45, 1-cyclopropyl-6,8-difluoro-7-[3-(4-carboxyl-1,2,3-triazol-1-yl)pyrrolidin-1-yl]-1,4-dihydro-4-oxo-quinoline-3-carboxylic acid] | 0.25 (≈ 0.561 µM) | – | – | – | – | – | 1 (≈ 2.25 µM) | – | – | – | – | – | – | –
NCc1cnnn1C1CCN(c2c(F)cc3c(=O)c(C(=O)O)cn(C4CC4)c3c2F)C1 (stereo not shown) [Example 44] | 0.5 (≈ 1.16 µM) | 1 (≈ 2.32 µM) | 1 (≈ 2.32 µM) | 8 (≈ 18.6 µM) | 25 (≈ 58.1 µM) | 0.25 (≈ 0.581 µM) | – | – | – | – | – | – | – | –

Further lines, with some results ahead:

MIC (Eschericia coli S-63; read-out: MIC) [µg/mL] | MIC [1, 6] [µg/mL] | MIC [2, 7] [µg/mL] | MIC [3, 8] [µg/mL] | MIC [4, 9] [µg/mL] | MIC [5, 10] [µg/mL] | MIC (Sa 127M; [11]) [µg/mL] | Molecule | MIC ([5]; Ecl S-130, inoculum 5 x 10^5 cfu/ml) | MIC (Eschericia coli S-63) | MIC [1] | MIC ([2]; Pr S-121, inoculum 5 x 10^5 cfu/ml) | MIC [3] [µg/mL] | MIC ([4]; Sa S-127, inoculum 5 x 10^5 cfu/ml) [µg/mL] | MIC (Sa 127M) [µg/mL]
0.06 (≈ 0.149 µM) | 0.25 (≈ 0.621 µM) | 0.12 (≈ 0.298 µM) | 2 (≈ 4.97 µM) | 0.06 (≈ 0.149 µM) | – | – | O=C(O)c1cn(C2CC2)c2c(F)c(N3CCC(n4cnnn4)C3)c(F)cc2c1=O (stereo not shown) [Example 52, 1-Cyclopropyl-6,8-fluoro-7-[3-(1,2,3,4-tetrazol-1-yl)pyrrolidin-1-yl]-1,4-dihydro-4-oxo-quinoline-3-carboxylic acid] | – | – | – | – | – | – | –
0.12 (≈ 0.289 µM) | 0.5 (≈ 1.2 µM) | 0.5 (≈ 1.2 µM) | 4 (≈ 9.63 µM) | ≤ 0.015 | 0.25 (≈ 0.602 µM) | ≤ 0.015 | Cc1c(F)c(N2CCC(n3ccnn3)C2)c(F)c2c1c(=O)c(C(=O)O)cn2C1CC1 (stereo not shown) [Example 24, 1-Cyclopropyl-6,8-difluoro-5-methyl-7-[3-(1,2,3-triazol-1-yl)pyrrolidin-1-yl]-1,4-dihydro-4-oxo-quinoline-3-carboxylic acid] | – | – | – | – | – | – | –
0.25 (≈ 0.602 µM) | 0.5 (≈ 1.2 µM) | 2 (≈ 4.81 µM) | 4 (≈ 9.63 µM) | 0.125 (≈ 0.301 µM) | 1 (≈ 2.41 µM) | 0.25 (≈ 0.602 µM) | Cc1cn(C2CCN(c3c(F)cc4c(=O)c(C(=O)O)cn(C5CC5)c4c3F)C2)nn1 (stereo not shown) [Example 27, 1-Cyclopropyl-6,8-difluoro-7-[3-(4-methyl-1,2,3-triazol-1-yl)pyrrolidin-1-yl]-1,4-dihydro-4-oxo-quinoline-3-carboxylic acid] | – | – | – | – | – | – | –
0.12 (≈ 0.289 µM) | 0.5 (≈ 1.2 µM) | 0.5 (≈ 1.2 µM) | 4 (≈ 9.63 µM) | ≤ 0.015 | 0.25 (≈ 0.602 µM) | ≤ 0.015 | Cc1c(F)c(N2CCC(n3cncn3)C2)c(F)c2c1c(=O)c(C(=O)O)cn2C1CC1 (stereo not shown) [Example 23, 1-Cyclopropyl-6,8-difluoro-5-methyl-7-[3-(1,2,4-triazol-1-yl)pyrrolidin-1-yl]-1,4-dihydro-4-oxo-quinoline-3-carboxylic acid] | – | – | – | – | – | – | –
0.12 (≈ 0.288 µM) | – | – | – | ≤ 0.015 | – | – | Nc1c(F)c(N2CCC(n3cncn3)C2)c(F)c2c1c(=O)c(C(=O)O)cn2C1CC1 (stereo not shown) [Example 28, 5-Amino-1-cyclopropyl-6,8-difluoro-7-[3-(1,2,4-triazol-1-yl)pyrrolidin-1-yl]-1,4-dihydro-4-oxo-quinoline-3-carboxylic acid] | – | – | – | – | – | – | –
0.5 (≈ 1.19 µM) | 0.5 (≈ 1.19 µM) | 0.12 (≈ 0.286 µM) | 8 (≈ 19.1 µM) | 0.25 (≈ 0.596 µM) | 0.5 (≈ 1.19 µM) | 0.25 (≈ 0.596 µM) | O=C(O)c1cn(C2CC2)c2c(F)c(N3CCC(n4ccnn4)C3)c(F)c(F)c2c1=O (stereo not shown) [Example 49, 1-cyclopropyl-5,6,8-trifluoro-7-[3-(1,2,3-triazol-1-yl)-pyrrolidin-1-yl]-1,4-dihydro-4-oxo-quinoline-3-carboxylic acid] | – | – | – | – | – | – | –
0.12 (≈ 0.278 µM) | – | – | – | 0.03 (≈ 0.0695 µM) | – | – | Nc1cn(C2CCN(c3c(F)c(N)c4c(=O)c(C(=O)O)cn(C5CC5)c4c3F)C2)nn1 (stereo not shown) [Example 41, 5-Amino-1-cyclopropyl-6,8-difluoro-7-(3-(4-amino-1,2,3-triazol-1-yl)-pyrrolidin-1-yl)-1,4-dihydro-4-oxo-quinoline-3-carboxylic acid] | – | – | – | – | – | – | –
